According to patent US20160287589A1, “SUBSTITUTED-IMIDAZOPYRIDAZINES” (BAYER PHARMA AKTIENGESELLSCHAFT, priority 2013, published 2016):

Tests used:
MKNK1 [1] = target: T1, MKNK1 (Homo sapiens, UniProt Q9BUB5, T385D); assay: MKNK1 kinase high ATP assay (TR-FRET-based); type: biochemical; settings: Table 2c; 2 mM ATP, 15 min preincubation
T1 construct: GST (N); purchased Carna Biosciences 02-145; host or cells: insect cells (baculovirus expression system)
In short: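 TR-FRET read-out (anti-phospho-S6 Ser236 antibody, Eu/XL665) of biotin-peptide phosphorylation (0.06 μM) at high ATP (2 mM final). Enzyme was GST-MKNK1 full length, T344D, pre-bound to compound for 15 min before a 30 min reaction at 22 °C, pH 7.5. Inhibition scaled between no-inhibitor (0%) and no-enzyme (100%) wells.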

MKNK1 [2] = target: T1, MKNK1; assay: MKNK1 kinase assay (MKNK1 TR-FRET assay); type: biochemical; settings: Table 1c; 10 μM ATP, 15 min preincubation

T1 sequence (Q9BUB5 1-424 isoform Q9BUB5-2 T344D): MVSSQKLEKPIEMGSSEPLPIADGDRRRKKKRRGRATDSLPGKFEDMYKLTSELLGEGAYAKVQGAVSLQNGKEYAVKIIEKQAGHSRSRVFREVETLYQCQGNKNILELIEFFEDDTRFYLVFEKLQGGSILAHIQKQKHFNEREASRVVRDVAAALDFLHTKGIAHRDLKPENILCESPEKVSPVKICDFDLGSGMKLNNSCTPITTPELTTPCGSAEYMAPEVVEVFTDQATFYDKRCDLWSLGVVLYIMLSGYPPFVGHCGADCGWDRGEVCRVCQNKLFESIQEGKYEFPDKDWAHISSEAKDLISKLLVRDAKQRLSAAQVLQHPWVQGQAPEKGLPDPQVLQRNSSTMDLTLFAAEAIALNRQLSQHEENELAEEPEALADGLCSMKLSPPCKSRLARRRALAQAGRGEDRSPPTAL

Row | SMILES | IC50 (MKNK1 [1]) | IC50 (MKNK1 [2])
1 | C[C@H](N)COc1ccc2ncc(-c3cc4c(N5CC[C@H](N(C)C)C5)nccc4o3)n2n1 [III-115, (3S)-1-[2-(6-{[(2S)-2-aminopropyl]oxy}imidazo [1,2-b]pyridazin-3-yl)furo[3,2-c]pyridin-4-yl]-N,N-dimethylpyrrolidin-3-amine] | 84.1 nM | 18.6 nM
2 | C[C@H](N)COc1ccc2ncc(-c3cc4c(N5CCN(C(C)(C)C)CC5)nccc4o3)n2n1 [III-116, (2S)-1-({3-[4-(4-tert-butylpiperazin-1-yl)furo[3,2-c]pyridin-2-yl]imidazo[1,2-b]pyridazin-6-yl}oxy)propan-2-amine] | 114 nM | 27 nM
3 | C[C@H](N)COc1ccc2ncc(-c3cc4c(N5CCO[C@H](C)C5)nccc4o3)n2n1 [III-117, (2S)-1-[(3-{4-[(2R)-2-methylmorpholin-4-yl]furo[3,2-c]pyridin-2-yl}imidazo[1,2-b]pyridazin-6-yl)oxy]propan-2-amine] | 39.9 nM | 21.5 nM
4 | C[C@@H]1CN(c2nccc3oc(-c4cnc5ccc(OCCCS(C)(=O)=O)nn45)cc23)CCO1 [III-119, 3-{4-[(2R)-2-methylmorpholin-4-yl]furo[3,2-c]pyridin-2-yl}-6-[3-(methylsulfonyl)propoxy] imidazo[1,2-b]pyridazine] | 17 nM | 8.8 nM
5 | C[C@@H]1CN(c2nccc3oc(-c4cnc5ccc(OC[C@@H](C)N)nn45)cc23)CCO1 [III-121, (2R)-1-[(3-{4-[(2R)-2-methylmorpholin-4-yl]furo[3,2-c]pyridin-2-yl}imidazo[1,2-b]pyridazin-6-yl)oxy]propan-2-amine] | 12.8 nM | 11.6 nM
6 | C[C@@H]1CN(c2nccc3oc(-c4cnc5ccc(O[C@H]6C[C@H](N)C6)nn45)cc23)CCO1 [III-122, trans-3-[(3-{4-[(2R)-2-methylmorpholin-4-yl]furo[3,2-c]pyridin-2-yl}imidazo[1,2-b]pyridazin-6-yl)oxy]cyclobutanamine] | 13 nM | 12.3 nM
7 | C[C@@H](N)COc1ccc2ncc(-c3cc4c(N5CCOC(C)(C)C5)nccc4o3)n2n1 [III-124, (2R)-1-({3-[4-(2,2-dimethylmorpholin-4-yl)furo[3,2-c]pyridin-2-yl]imidazo[1,2-b]pyridazin-6-yl}oxy)propan-2-amine] | 13.9 nM | 16.8 nM
8 | CC1(C)CN(c2nccc3oc(-c4cnc5ccc(O[C@H]6C[C@H](N)C6)nn45)cc23)CCO1 [III-129, trans-3-({3-[4-(2,2-dimethylmorpholin-4-yl)furo[3,2-c]pyridin-2-yl]imidazo[1,2-b]pyridazin-6-yl}oxy)cyclobutanamine] | 14.1 nM | 16.8 nM
9 | COc1ccc2ncc(-c3cc4c(N5CCN[C@@H](C)C5)nccc4o3)n2n1 [III-133, 6-methoxy-3-{4-[(3S)-3-methylpiperazin-1-yl]furo[3,2-c]pyridin-2-yl}imidazo[1,2-b]pyridazine] | 13.1 nM | 2.7 nM
10 | CC1(C)CN(c2nccc3oc(-c4cnc5ccc(OCCCS(C)(=O)=O)nn45)cc23)CCO1 [III-135, 3-[4-(2,2-dimethylmorpholin-4-yl)furo[3,2-c]pyridin-2-yl]-6-[3-(methylsulfonyl)propoxy] imidazo[1,2-b]pyridazine] | 12.9 nM | 30.1 nM
11 | COC[C@@H]1CCCN1c1nccc2oc(-c3cnc4ccc(O[C@H](C)CN)nn34)cc12 [III-136, (2R)-2-[(3-{4-[(2S)-2-(methoxymethyl)pyrrolidin-1-yl]furo[3,2-c]pyridin-2-yl}imidazo[1,2-b]pyridazin-6-yl)oxy]propan-1-amine] | 122 nM | 52.5 nM
12 | C[C@H]1CN(c2nccc3oc(-c4cnc5ccc(OCC(F)(F)F)nn45)cc23)CCN1 [III-145, 3-{4-[(3S)-3-methylpiperazin-1-yl]furo[3,2-c]pyridin-2-yl}-6-(2,2,2-trifluoroethox-y)imidazo[1,2-b]pyridazine] | 24 nM | 9.7 nM

These reach a lower IC50 (MKNK1 [1]). Values come first.

Row | IC50 (MKNK1 [1]) | IC50 (MKNK1 [2]) | SMILES
13 | 1 nM | 2.5 nM | C[C@@H]1CN(c2nccc3oc(-c4cnc5ccc(OC[C@H]6CCC(=O)N6)nn45)cc23)CCO1 [III-118, (5R)-5-{[(3-{4-[(2R)-2-methylmorpholin-4-yl]furo[3,2-c]pyridin-2-yl}imidazo[1,2-b]pyridazin-6-yl)oxy]methyl}pyrrolidin-2-one]
14 | 7.4 nM | 11.2 nM | COc1ccc2ncc(-c3cc4c(N5CCO[C@H](C)C5)nccc4o3)n2n1 [III-120, 6-methoxy-3-{4-[(2R)-2-methylmorpholin-4-yl]furo[3,2-c]pyridin-2-yl}imidazo[1,2-b]pyridazine]
15 | 0.5 nM | 2.2 nM | C[C@H]1CN(c2nccc3oc(-c4cnc5ccc(OC[C@H]6CCC(=O)N6)nn45)cc23)CCO1 [III-123, (5R)-5-{[(3-{4-[(2S)-2-methylmorpholin-4-yl]furo[3,2-c]pyridin-2-yl}imidazo[1,2-b]pyridazin-6-yl)oxy]methyl}pyrrolidin-2-one]
16 | 7.1 nM | 7.4 nM | C[C@@H]1CN(c2nccc3oc(-c4cnc5ccc(OC[C@@H]6CCC(=O)N6)nn45)cc23)CCO1 [III-125, (5S)-5-{[(3-{4-[(2R)-2-methylmorpholin-4-yl]furo[3,2-c]pyridin-2-yl}imidazo[1,2-b]pyridazin-6-yl)oxy]methyl}pyrrolidin-2-one]
17 | 2.6 nM | 5.3 nM | CC1(C)CN(c2nccc3oc(-c4cnc5ccc(OCC(F)(F)F)nn45)cc23)CCN1 [III-126, 3-[4-(3,3-dimethylpiperazin-1-yl)furo[3,2-c]pyridin-2-yl]-6-(2,2,2-trifluoroethoxy)imidazo [1,2-b]pyridazine]
18 | 11.8 nM | 12.8 nM | C[C@H](N)COc1ccc2ncc(-c3cc4c(N5CCOC(C)(C)C5)nccc4o3)n2n1 [III-128, (2S)-1-({3-[4-(2,2-dimethylmorpholin-4-yl)furo[3,2-c]pyridin-2-yl]imidazo[1,2-b]pyridazin-6-yl}oxy)propan-2-amine]
19 | 1.5 nM | 5.3 nM | COc1ccc2ncc(-c3cc4c(N5CCNC(C)(C)C5)nccc4o3)n2n1 [III-130, 3-[4-(3,3-dimethylpiperazin-1-yl)furo[3,2-c]pyridin-2-yl]-6-methoxy-imidazo[1,2-b]pyridazine]
20 | 7 nM | 11.9 nM | CC1(C)CN(c2nccc3oc(-c4cnc5ccc(OCCCS(C)(=O)=O)nn45)cc23)CCN1 [III-131, 3-[4-(3,3-dimethylpiperazin-1-yl)furo[3,2-c]pyridin-2-yl]-6-[3-(methylsulfonyl)propoxy] imidazo[1,2-b]pyridazine]
21 | 2.5 nM | 6.8 nM | CC1(C)CN(c2nccc3oc(-c4cnc5ccc(OC[C@@H]6CCC(=O)N6)nn45)cc23)CCO1 [III-132, (5S)-5-[({3-[4-(2,2-dimethylmorpholin-4-yl)furo[3,2-c]pyridin-2-yl]imidazo[1,2-b]pyridazin-6-yl}oxy)methyl]pyrrolidin-2-one]
22 | 1 nM | 2 nM | CC1(C)CN(c2nccc3oc(-c4cnc5ccc(OC[C@@H]6CCC(=O)N6)nn45)cc23)CCN1 [III-134, (5S)-5-[({3-[4-(3,3-dimethylpiperazin-1-yl)furo[3,2-c]pyridin-2-yl]imidazo[1,2-b]pyridazin-6-yl}oxy)methyl]pyrrolidin-2-one]
23 | 0.6 nM | 2.7 nM | CCN(CCOC)c1nccc2oc(-c3cnc4ccc(OCCC[S@@](C)(=O)=NC#N)nn34)cc12 [III-137, [{3-[(3-{4-[ethyl(2-methoxyethyl)ami-no]furo[3,2-c]pyridin-2-yl}imidazo[1,2-b]pyridazin-6-yl)oxy]propyl}(methyl)oxido-λ^6-sulfanylidene]cyanamide]
24 | 1.7 nM | 3 nM | CCN(CCOC)c1nccc2oc(-c3cnc4ccc(OC[C@@H]5CCCN5)nn34)cc12 [III-139, N-ethyl-N-(2-methoxyethyl)-2-{6-[(2S)-pyrrolidin-2-ylmeth-oxy]imidazo[1,2-b]pyridazin-3-yl}furo[3,2-c]pyridin-4-amine]
25 | 1.4 nM | 3.3 nM | CC1(C)CN(c2nccc3oc(-c4cnc5ccc(OC[C@H]6CCC(=O)N6)nn45)cc23)CCN1 [III-141, (5R)-5-[({3-[4-(3,3-dimethylpiperazin-1-yl)furo[3,2-c]pyridin-2-yl]imidazo[1,2-b]pyridazin-6-yl}oxy)methyl]pyrrolidin-2-one]
26 | 0.5 nM | 1.6 nM | CC1(C)CN(c2nccc3oc(-c4cnc5ccc(OC[C@H]6CCC(=O)N6)nn45)cc23)CCO1 [III-142, (5R)-5-[({3-[4-(2,2-dimethylmorpholin-4-yl)furo[3,2-c]pyridin-2-yl]imidazo[1,2-b]pyridazin-6-yl}oxy)methyl]pyrrolidin-2-one]
27 | 10 nM | 3.7 nM | C[C@H]1CN(c2nccc3oc(-c4cnc5ccc(OCCCS(C)(=O)=O)nn45)cc23)CCN1 [III-143, 3-{4-[(3S)-3-methylpiperazin-1-yl]furo[3,2-c]pyridin-2-yl}-6-[3-(methylsulfonyl)propoxy] imidazo[1,2-b]pyridazine]
28 | 6.7 nM | 4.6 nM | COc1ccc2ncc(-c3cc4c(N5CCN[C@H](C)C5)nccc4o3)n2n1 [III-144, 6-methoxy-3-{4-[(3R)-3-methylpiperazin-1-yl]furo[3,2-c]pyridin-2-yl}imidazo[1,2-b]pyridazine]
29 | 8.7 nM | 27 nM | COc1ccc2ncc(-c3cc4c(N5CCOC(C)(C)C5)nccc4o3)n2n1 [III-146, 3-[4-(2,2-dimethylmorpholin-4-yl)furo[3,2-c]pyridin-2-yl]-6-methoxy-imidazo[1,2-b]pyridazine]
